Data published in ChEMBL document CHEMBL1201862, “PubChem BioAssay data set” (2004).
Activity calls are given as the source filed them.

How the values were obtained:
[1] = A Cell Based Secondary Assay to Explore Cytotoxicity in THP-1 Cells of Compounds that Modulate Mycobacterium tuberculosis in Media Containing Glycerol versus Media without Glycerol (2).; format: functional
cells [2] = format: functional
Insulin-degrading enzyme [3] = target: T1, Insulin-degrading enzyme (Homo sapiens, UniProt P14735); experiment: cellular IDE activation of Abeta substrate cleavage – fluorescence polarization, HEK cells, dose response (AID 588439); format: functional, cell-based
T1 sequence (P14735 whole entry): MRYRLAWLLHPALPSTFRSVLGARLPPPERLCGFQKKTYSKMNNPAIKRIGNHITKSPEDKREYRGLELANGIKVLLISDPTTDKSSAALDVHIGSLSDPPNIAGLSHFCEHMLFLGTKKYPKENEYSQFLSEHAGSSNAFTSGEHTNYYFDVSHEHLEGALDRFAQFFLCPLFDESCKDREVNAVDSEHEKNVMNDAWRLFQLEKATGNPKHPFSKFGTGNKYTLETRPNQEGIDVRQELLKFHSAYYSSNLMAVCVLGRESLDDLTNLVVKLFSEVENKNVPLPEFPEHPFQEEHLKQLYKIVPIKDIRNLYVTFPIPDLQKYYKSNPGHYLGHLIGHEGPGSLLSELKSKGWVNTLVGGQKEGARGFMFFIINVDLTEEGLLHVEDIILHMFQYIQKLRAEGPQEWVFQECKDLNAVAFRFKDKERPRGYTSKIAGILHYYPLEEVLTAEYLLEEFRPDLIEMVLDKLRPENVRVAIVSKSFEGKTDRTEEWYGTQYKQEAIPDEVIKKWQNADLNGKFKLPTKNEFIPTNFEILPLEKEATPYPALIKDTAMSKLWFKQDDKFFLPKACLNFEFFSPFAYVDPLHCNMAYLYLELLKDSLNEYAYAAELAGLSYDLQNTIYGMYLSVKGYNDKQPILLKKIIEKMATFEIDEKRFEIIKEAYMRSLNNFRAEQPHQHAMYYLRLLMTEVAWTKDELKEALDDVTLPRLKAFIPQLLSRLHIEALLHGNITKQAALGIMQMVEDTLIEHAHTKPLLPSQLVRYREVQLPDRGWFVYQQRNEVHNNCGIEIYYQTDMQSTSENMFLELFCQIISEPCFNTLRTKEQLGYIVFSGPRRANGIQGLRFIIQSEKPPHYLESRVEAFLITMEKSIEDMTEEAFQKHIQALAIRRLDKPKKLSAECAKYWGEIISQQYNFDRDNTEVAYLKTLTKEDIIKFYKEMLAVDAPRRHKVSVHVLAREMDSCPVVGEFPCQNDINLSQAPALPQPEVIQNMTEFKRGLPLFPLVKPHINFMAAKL

Nonstructural protein 1 = Nonstructural protein 1 (Influenza A virus, UniProt Q194T2); format: functional, Influenza A virus (A/California/07/2009(H1N1))
Chain of Nonstructural protein 1 (Q194T2 whole entry): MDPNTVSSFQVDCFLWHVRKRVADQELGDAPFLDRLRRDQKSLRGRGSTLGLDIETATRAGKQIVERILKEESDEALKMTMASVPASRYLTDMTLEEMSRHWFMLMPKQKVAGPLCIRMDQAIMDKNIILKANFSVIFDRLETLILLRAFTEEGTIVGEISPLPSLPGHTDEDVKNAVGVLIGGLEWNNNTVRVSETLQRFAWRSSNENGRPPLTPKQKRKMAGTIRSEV

Insulin-degrading enzyme [4] = target: T1, Insulin-degrading enzyme; experiment: recombinant IDE activation, cell-free – biochemical, fluorescence polarization, counter-screen for IDE activator project, dose response (AID 588681)
[5] = target: Ras and Rab interactor 1/Tyrosine-protein kinase ABL1 (Homo sapiens, UniProt P00519+Q13671); format: functional;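 also: biochemical TR-FRET dose-response test measuring inhibition of binding between Rin1 and Abl proteins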
[6] = target: T2, Histone-lysine N-methyltransferase NSD2 (Homo sapiens, UniProt O96028); format: biochemical
T2 sequence (O96028 whole entry): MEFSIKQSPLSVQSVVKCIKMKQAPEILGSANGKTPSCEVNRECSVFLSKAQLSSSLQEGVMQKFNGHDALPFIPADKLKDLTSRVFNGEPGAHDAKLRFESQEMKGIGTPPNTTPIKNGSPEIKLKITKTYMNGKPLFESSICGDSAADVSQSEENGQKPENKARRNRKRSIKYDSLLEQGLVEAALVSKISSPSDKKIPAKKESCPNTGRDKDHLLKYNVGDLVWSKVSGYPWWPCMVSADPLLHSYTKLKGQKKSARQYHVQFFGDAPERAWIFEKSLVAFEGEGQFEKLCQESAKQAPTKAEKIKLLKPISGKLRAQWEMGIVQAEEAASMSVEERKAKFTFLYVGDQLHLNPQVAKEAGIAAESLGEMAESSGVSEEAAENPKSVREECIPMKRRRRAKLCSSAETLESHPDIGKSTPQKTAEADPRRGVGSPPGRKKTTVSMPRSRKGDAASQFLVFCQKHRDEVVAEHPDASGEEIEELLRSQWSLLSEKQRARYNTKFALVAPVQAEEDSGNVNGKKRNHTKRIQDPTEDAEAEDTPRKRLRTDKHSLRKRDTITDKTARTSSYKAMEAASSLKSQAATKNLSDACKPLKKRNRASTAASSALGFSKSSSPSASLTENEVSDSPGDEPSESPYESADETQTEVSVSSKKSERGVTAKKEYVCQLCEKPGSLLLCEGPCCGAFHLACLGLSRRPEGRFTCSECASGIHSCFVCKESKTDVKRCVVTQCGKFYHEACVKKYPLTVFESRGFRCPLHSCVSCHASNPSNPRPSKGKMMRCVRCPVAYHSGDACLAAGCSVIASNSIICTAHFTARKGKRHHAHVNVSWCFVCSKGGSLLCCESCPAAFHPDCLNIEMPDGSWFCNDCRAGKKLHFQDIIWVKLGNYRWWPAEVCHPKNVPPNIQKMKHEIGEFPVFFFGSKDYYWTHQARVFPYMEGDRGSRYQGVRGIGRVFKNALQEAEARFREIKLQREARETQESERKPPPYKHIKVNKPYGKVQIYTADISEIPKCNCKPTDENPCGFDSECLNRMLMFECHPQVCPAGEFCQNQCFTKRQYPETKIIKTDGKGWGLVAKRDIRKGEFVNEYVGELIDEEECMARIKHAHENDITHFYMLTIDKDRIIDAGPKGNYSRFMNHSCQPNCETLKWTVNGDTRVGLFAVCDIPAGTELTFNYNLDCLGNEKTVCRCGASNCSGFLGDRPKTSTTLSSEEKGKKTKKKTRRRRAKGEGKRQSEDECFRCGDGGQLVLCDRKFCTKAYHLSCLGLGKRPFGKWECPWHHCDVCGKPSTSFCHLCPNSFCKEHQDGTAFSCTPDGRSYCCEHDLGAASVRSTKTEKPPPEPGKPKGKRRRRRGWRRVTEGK

[7] = target: G-protein coupled receptor 55 (Homo sapiens, UniProt Q9Y2T6); experiment: inhibition of LPI-stimulated GPR55 beta-arrestin translocation – imaging, U2OS, beta-arrestin-GFP, LPI agonist, primary screen (AID 2013); format: functional;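 also: antagonist potency measured as reduced agonist-driven arrestin aggregation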
Chain of G-protein coupled receptor 55 (Q9Y2T6 whole entry): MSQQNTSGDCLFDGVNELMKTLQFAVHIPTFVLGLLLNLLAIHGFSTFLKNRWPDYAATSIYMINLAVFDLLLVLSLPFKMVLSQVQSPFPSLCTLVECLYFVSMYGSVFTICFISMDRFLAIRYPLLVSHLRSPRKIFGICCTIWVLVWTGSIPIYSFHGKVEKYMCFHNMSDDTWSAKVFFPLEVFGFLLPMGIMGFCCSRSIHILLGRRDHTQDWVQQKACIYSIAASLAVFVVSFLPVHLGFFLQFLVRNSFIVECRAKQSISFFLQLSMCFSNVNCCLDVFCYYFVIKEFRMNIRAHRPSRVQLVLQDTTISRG

[8] = target: Potassium voltage-gated channel subfamily KQT member 2 (Rattus norvegicus, UniProt O88943); experiment: blockers of KCNQ2 channel current – cell-based, automated electrophysiology, set II, rat KCNQ2, dose response (AID 588637); format: functional
Chain of Potassium voltage-gated channel subfamily KQT member 2 (O88943 whole entry): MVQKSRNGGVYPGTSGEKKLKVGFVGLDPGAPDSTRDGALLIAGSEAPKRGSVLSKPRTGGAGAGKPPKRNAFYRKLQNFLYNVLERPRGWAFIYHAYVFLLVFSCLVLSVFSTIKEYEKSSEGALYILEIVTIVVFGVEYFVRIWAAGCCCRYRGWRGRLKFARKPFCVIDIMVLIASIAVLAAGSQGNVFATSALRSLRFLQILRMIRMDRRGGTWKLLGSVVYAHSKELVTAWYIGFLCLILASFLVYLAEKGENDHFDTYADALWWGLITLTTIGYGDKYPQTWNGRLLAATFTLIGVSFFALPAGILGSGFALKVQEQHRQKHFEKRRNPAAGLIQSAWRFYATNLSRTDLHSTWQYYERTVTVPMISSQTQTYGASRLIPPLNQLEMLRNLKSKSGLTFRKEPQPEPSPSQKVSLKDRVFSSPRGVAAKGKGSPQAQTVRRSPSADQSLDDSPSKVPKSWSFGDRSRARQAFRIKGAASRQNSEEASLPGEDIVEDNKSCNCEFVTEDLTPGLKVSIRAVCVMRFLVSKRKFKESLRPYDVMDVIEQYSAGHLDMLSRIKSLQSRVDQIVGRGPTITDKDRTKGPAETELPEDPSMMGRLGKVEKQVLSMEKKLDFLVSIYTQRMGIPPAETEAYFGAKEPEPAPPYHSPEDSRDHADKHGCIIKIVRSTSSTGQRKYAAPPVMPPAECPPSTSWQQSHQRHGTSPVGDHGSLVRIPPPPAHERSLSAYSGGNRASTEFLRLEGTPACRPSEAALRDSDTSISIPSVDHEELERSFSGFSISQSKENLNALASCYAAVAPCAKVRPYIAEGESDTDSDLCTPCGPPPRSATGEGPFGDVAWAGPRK

INS1 = experiment: INS-1E survival protection against cytokine death – cell-based, luminescence, retest, dose response (AID 449756); format: functional; details: Rattus norvegicus;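 also: cell death triggered by IL-1 beta plus TNF-alpha plus IFN-gamma mixture; protective hits raise ATP signal compared with cytokine alone wells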
[9] = target: 72 kDa type IV collagenase (Homo sapiens, UniProt P08253); experiment: Dose Response validation of uHTS RPN11 inhibitor hits using a MMP-2 Fluorescence assay.; format: functional
Chain of 72 kDa type IV collagenase (P08253 whole entry): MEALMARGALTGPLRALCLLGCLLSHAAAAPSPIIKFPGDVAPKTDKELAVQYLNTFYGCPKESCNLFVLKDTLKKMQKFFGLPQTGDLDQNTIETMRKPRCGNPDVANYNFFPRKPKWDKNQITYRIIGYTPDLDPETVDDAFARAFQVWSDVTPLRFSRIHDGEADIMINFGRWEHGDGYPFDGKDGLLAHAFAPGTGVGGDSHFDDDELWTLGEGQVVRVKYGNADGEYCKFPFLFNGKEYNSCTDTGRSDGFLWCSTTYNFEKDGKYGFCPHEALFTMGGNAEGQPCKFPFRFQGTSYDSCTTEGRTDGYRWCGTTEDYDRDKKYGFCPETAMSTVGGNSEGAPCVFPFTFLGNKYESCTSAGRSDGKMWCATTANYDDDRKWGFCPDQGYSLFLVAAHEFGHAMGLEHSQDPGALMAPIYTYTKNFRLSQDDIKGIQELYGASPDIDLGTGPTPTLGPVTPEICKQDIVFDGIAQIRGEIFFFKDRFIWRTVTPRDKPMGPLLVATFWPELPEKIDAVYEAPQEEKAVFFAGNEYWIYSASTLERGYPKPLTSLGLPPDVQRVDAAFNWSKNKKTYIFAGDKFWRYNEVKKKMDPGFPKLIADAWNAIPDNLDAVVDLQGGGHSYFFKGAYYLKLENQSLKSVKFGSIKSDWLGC

cells [10] = experiment: cells
HEK293 [11] = experiment: cells; details: Homo sapiens
[12] = target: T3, Microphthalmia-associated transcription factor (Homo sapiens, UniProt O75030); experiment: reducers of TRPM1 reporter luminescence, concentration series – cell-based, SK-MEL-5, cherry-picked, set 3, MITF inhibitor project, dose response (AID 493073); format: functional;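 also: SK-MEL-5 melanoma cells with luciferase driven by the MITF target TRPM1 promoter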
T3 sequence (O75030 whole entry): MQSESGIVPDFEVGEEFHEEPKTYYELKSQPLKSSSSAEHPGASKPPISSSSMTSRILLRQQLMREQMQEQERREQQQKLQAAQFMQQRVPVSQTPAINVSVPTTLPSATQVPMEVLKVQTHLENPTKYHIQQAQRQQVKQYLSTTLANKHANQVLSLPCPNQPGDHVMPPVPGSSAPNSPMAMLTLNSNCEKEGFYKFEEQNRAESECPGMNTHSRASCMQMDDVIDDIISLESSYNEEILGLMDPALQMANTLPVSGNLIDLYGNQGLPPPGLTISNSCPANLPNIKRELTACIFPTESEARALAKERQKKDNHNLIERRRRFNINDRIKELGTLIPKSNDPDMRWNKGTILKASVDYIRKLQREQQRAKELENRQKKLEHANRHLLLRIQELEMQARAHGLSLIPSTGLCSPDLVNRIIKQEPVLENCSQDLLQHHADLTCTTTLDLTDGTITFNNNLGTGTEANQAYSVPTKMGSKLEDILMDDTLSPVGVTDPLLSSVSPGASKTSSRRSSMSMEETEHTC

[13] = target: T4, Oxysterols receptor LXR-beta (Homo sapiens, UniProt P55055); format: functional, cell-based;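 also: Cell-based luminescence dose-response assay of agonist activity at LXR, run as a confirmatory counterscreen to a daf-12 agonist screen; HEK293 cells with Gal4-LXR fusion and GAL4-driven luciferase reporter; agonist potency from rising luciferase signal of a Gal4-LXR reporter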
T4 sequence (P55055 whole entry): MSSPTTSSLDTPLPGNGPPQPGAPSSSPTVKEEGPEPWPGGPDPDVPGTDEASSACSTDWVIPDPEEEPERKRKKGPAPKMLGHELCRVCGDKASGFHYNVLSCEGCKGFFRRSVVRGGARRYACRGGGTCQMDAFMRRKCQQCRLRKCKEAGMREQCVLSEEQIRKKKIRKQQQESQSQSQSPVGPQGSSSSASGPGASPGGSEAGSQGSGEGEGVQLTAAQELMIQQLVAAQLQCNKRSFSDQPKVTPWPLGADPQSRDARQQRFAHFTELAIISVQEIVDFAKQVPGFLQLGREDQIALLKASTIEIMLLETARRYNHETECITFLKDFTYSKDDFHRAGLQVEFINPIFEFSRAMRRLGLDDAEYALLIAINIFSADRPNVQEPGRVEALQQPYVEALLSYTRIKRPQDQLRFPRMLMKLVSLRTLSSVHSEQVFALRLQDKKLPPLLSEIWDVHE

HEK293 [14] = experiment: cells; details: Homo sapiens; remark: listed apart in the source
[15] = target: DNA (cytosine-5)-methyltransferase 1 (Homo sapiens, UniProt P26358); experiment: inhibition of DNA methylation by DNMT1 – biochemical, fluorescent molecular beacon, confirmation (AID 602386); format: functional
Chain of DNA (cytosine-5)-methyltransferase 1 (P26358 whole entry): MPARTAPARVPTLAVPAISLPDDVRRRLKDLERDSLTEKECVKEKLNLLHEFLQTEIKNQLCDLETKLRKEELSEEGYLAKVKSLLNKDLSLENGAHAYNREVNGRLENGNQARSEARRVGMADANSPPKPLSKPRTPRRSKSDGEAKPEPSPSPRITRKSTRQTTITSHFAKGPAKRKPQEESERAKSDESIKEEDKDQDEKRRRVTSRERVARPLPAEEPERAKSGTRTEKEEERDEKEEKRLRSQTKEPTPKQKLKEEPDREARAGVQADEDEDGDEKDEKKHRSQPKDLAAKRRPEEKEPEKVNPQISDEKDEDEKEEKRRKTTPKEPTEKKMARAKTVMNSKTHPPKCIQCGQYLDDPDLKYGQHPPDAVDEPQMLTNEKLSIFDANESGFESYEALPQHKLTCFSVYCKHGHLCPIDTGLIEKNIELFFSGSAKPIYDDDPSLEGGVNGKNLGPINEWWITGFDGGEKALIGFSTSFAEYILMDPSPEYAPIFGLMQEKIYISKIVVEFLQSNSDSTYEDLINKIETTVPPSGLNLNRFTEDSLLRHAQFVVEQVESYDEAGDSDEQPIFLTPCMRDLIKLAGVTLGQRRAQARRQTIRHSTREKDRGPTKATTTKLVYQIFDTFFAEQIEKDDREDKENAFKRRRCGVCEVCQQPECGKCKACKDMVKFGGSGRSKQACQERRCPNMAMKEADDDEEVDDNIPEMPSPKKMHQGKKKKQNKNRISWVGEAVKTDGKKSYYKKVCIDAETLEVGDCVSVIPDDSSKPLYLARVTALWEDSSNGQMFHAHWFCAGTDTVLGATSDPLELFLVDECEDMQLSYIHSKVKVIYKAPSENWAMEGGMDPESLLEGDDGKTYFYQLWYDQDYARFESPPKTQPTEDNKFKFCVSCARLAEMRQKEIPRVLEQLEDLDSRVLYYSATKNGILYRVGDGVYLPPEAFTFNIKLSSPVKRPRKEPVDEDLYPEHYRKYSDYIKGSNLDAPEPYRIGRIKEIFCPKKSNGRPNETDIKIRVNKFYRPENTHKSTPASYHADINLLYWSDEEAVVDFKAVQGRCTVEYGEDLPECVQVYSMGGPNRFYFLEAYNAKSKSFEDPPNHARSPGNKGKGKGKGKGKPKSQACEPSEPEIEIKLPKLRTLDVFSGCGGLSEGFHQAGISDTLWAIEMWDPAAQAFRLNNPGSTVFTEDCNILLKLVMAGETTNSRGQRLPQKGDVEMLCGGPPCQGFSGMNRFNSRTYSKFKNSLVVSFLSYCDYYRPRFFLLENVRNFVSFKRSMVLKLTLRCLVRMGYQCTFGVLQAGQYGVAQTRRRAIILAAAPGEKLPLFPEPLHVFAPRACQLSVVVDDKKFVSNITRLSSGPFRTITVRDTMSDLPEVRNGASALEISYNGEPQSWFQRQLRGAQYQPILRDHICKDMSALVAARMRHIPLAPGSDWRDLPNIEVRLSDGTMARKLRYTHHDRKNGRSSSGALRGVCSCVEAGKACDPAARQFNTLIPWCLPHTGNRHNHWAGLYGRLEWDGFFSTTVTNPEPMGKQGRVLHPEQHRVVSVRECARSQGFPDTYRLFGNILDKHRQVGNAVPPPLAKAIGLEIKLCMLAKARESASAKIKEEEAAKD

Prothrombin = Prothrombin (Bos taurus, UniProt P00735); experiment: thrombin protease inhibitors – biochemical, fluorescence polarization, uHTS hits, dose response (AID 602369); format: functional
[16] = Trypanosoma cruzi growth suppression in host cells – NIH3T3 host cells, beta-gal luminescence, confirmation (AID 2044); format: functional, cell-based;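 also: intracellular parasites grown in NIH/3T3 mouse fibroblasts as host cells; luminescent beta-galactosidase reporter signal from transgenic T. cruzi replicating inside host cells; inhibitors lower the luminescence signal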
A-375 = experiment: proliferation inhibition in MITF-low A375 cells – cell-based, cherry-pick samples, set 2, counter-screen for MITF modulator project, dose response (AID 540335); format: functional; details: Homo sapiens
[17] = target: T5, DNA repair protein RAD52 homolog (Homo sapiens, UniProt P43351); format: functional, biochemical
T5 sequence (P43351 whole entry): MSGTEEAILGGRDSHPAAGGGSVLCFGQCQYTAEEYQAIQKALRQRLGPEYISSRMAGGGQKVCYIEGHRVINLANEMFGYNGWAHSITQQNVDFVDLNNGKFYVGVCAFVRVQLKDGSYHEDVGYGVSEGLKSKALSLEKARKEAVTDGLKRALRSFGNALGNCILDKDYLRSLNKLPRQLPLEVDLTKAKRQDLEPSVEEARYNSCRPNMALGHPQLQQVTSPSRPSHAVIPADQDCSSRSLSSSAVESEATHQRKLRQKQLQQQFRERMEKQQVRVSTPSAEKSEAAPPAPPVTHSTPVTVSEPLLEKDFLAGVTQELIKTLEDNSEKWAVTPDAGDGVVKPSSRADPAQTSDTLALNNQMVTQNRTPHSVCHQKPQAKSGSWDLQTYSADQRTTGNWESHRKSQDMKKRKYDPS

[18] = target: 26S proteasome non-ATPase regulatory subunit 14 (Homo sapiens, UniProt O00487); experiment: inhibition of proteasome subunit RPN11 – biochemical, fluorescence polarization, uHTS hits, confirmation (AID 602368); format: functional
Chain of 26S proteasome non-ATPase regulatory subunit 14 (O00487 whole entry): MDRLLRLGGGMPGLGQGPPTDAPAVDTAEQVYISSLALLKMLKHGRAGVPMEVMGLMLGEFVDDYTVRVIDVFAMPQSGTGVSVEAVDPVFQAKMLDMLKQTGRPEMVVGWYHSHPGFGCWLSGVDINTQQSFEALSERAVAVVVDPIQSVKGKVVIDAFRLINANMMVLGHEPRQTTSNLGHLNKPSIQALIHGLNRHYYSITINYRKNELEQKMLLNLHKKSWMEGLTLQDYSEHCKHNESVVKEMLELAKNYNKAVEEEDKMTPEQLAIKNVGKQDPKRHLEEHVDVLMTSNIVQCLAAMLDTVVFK

[19] = target: Adenosylmethionine-8-amino-7-oxononanoate aminotransferase (Mycobacterium tuberculosis, UniProt P9WQ81); experiment: Mycobacterium tuberculosis BioA enzyme inhibitor Measured in Biochemical System Using Plate Reader - 2163-02_Inhibitor_Dose_CherryPick_Activity.; format: functional, Mycobacterium tuberculosis UT205
Chain of Adenosylmethionine-8-amino-7-oxononanoate aminotransferase (P9WQ81 whole entry): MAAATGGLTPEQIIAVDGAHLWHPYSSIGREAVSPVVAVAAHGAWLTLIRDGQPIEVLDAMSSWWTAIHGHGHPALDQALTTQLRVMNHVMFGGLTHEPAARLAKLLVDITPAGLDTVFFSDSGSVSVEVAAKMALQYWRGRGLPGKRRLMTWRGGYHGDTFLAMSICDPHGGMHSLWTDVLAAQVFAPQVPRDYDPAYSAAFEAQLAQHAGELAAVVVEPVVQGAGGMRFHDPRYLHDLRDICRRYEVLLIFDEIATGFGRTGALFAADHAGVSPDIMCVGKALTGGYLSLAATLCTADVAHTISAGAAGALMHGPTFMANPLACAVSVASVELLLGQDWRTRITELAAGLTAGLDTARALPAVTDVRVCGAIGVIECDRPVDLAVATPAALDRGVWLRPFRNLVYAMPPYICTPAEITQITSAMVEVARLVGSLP

[20] = target: T6, Low molecular weight phosphotyrosine protein phosphatase (Homo sapiens, UniProt P24666); format: functional; details: read-out: IC50_Mean
T6 sequence (P24666 whole entry): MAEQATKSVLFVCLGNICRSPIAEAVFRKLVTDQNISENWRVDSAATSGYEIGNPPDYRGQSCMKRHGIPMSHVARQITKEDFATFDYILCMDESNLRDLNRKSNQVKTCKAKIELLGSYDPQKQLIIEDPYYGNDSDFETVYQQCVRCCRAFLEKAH

[21] = target: T6, Low molecular weight phosphotyrosine protein phosphatase; format: functional; details: read-out: IC50_Mean; remark: listed apart in the source

## CCOC(=O)COn1c2c(c3c4no[n+]([O-])c4ccc31)CCCC2
[1]
  CC50: > 100 µM (active)
Cells [2]
  IC50: 5.49 µM (active)

## Cc1[nH]c(=O)[nH]c1C(=O)CCCCC(=O)O
Insulin-degrading enzyme [3]
  EC50: 12.2 µM (inactive)
Nonstructural protein 1
  IC50: 2.14 µM (active)
Insulin-degrading enzyme [4]
  EC50: 16.9 µM (inactive)
[5]
  IC50: 0.0174 µM (active)
[6]
  AC50: 10.2 µM (active)

## COc1ccc(Cl)cc1C(=O)NC(=S)Nc1ccccc1N1CCOCC1
[7]
  IC50: 0.825 µM (active)
[8]
  IC50: 5.98 µM (active)

## Cc1cc(C)c2c(N)c3cccc(C)c3nc2n1
INS1
  AC50: 1.62 µM (active)
[9]
  IC50: > 100 µM (inactive)
Cells [10]
  EC50: > 67.5 µM (inactive)
HEK293 [11]
  EC50: > 2.21 µM (active)
[12]
  AC50: 3.21 µM (active)
[13]
  EC50: > 67.5 µM (inactive)
HEK293 [14]
  EC50: > 59.6 µM (inactive)
[15]
  IC50: > 99 µM (inactive)
Prothrombin
  IC50: > 100 µM (inactive)
[16]
  EC50: 1.27 µM (active)
A-375
  AC50: 3.39 µM (active)
[17]
  AC50: 2.24 µM (active)
[18]
  IC50: 13.1 µM (active)

## CCCC(=O)Nc1cccc(NC(=O)c2ccc(C)c([N+](=O)[O-])c2)c1
[19]
  AC50: 1.96 µM (active)

## Oc1c(/C=N/c2ccc(Cl)cc2)cnn1-c1cccc(Cl)n1
[20]
  IC50: 17.1 µM (active)
[21]
  IC50: 15.4 µM (active)
